The record followed here is the supplement of paper PMC10307832.

Holding throughout (test): relative viability (nuclei count vs DMSO), 5 days (fraction); higher = more cells survive
Compound in the assay “Linsitinib + Trametinib”: C[C@]1(O)C[C@@H](c2nc(-c3ccc4ccc(-c5ccccc5)nc4c3)c3c(N)nccn32)C1 [Linsitinib] + CC(=O)Nc1cccc(-n2c(=O)n(C3CC3)c(=O)c3c(Nc4ccc(I)cc4F)n(C)c(=O)c(C)c32)c1 [Trametinib] (partner 0.02 µM)
Summed up: (§1)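 After 5 days of treatment, lung cancer cells in 1536-well plates were fixed and stained in a single step (final 0.05% Triton X-100, 1% formaldehyde, 1 ug/ml Hoechst) and their nuclei counted on 4× images. Treatment had been applied by pin tool the day after seeding as one drug alone or as a fixed anchor-drug dose with five library-drug doses (not always all listed) in √10 steps. Relative viability is the nuclei count of treated wells divided by that of vehicle wells, and values are medians of duplicate plates.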

Compound in the assay “Linsitinib + AZD7762”: C[C@]1(O)C[C@@H](c2nc(-c3ccc4ccc(-c5ccccc5)nc4c3)c3c(N)nccn32)C1 [Linsitinib] + NC(=O)Nc1cc(-c2cccc(F)c2)sc1C(=O)N[C@H]1CCCNC1 [AZD7762] (partner 0.2 µM)
Summed up: as §1

Compound in the assay “Linsitinib + Vorinostat”: C[C@]1(O)C[C@@H](c2nc(-c3ccc4ccc(-c5ccccc5)nc4c3)c3c(N)nccn32)C1 [Linsitinib] + O=C(CCCCCCC(=O)Nc1ccccc1)NO [Vorinostat] (partner 1 µM)
The gist of the method:
as §1

Compound in the assay “Ispinesib + Tozasertib”: Cc1ccc(C(=O)N(CCCN)[C@@H](c2nc3cc(Cl)ccc3c(=O)n2Cc2ccccc2)C(C)C)cc1 [Ispinesib] + Cc1cc(Nc2cc(N3CCN(C)CC3)nc(Sc3ccc(NC(=O)C4CC4)cc3)n2)n[nH]1 [Tozasertib] (partner 0.1 µM)
The gist of the method: as §1

In the case of NCI-H23, the relative viability turned out to be 0.49 with Linsitinib + Trametinib (first compound 0.01 µM); 0.371 in the assay with Linsitinib + Trametinib (first compound 0.03162 µM); 0.337 in the assay with Linsitinib + Trametinib (first compound 0.1 µM); 0.244 with Linsitinib + Trametinib (first compound 0.3162 µM); 0.256 with Linsitinib + Trametinib (first compound 1 µM); 0.239 in the assay with Linsitinib + AZD7762 (first compound 0.01 µM). The relative viability with Linsitinib + AZD7762 (first compound 0.03162 µM) was found to be 0.205; in the assay with Linsitinib + AZD7762 (first compound 0.1 µM) it was 0.215; in the assay with Linsitinib + AZD7762 (first compound 0.3162 µM), 0.254; in the assay with Linsitinib + AZD7762 (first compound 1 µM) it was 0.23; in the assay with Linsitinib + Vorinostat (first compound 0.01 µM) it was 0.633; with Linsitinib + Vorinostat (first compound 0.03162 µM), 0.327. For the same cell line, the relative viability is 0.765 with Linsitinib + Vorinostat (first compound 0.1 µM); 0.174 with Linsitinib + Vorinostat (first compound 0.3162 µM); 0.303 in the assay with Linsitinib + Vorinostat (first compound 1 µM); 0.428 with Ispinesib + Tozasertib (first compound 0.001 µM); 0.414 with Ispinesib + Tozasertib (first compound 0.003162 µM); 0.74 with Ispinesib + Tozasertib (first compound 0.01 µM). For the same cell line, the relative viability was 0.33 with Ispinesib + Tozasertib (first compound 0.03162 µM) and 0.272 with Ispinesib + Tozasertib (first compound 0.1 µM).
NCI-H322M: the relative viability with Linsitinib + Trametinib (first compound 0.01 µM) was 0.513; in the assay with Linsitinib + Trametinib (first compound 0.03162 µM), 0.548; with Linsitinib + Trametinib (first compound 0.1 µM) it was 0.571; with Linsitinib + Trametinib (first compound 0.3162 µM) it was 0.531; with Linsitinib + Trametinib (first compound 1 µM), 0.473; with Linsitinib + AZD7762 (first compound 0.01 µM) it was 0.575. Also, the relative viability with Linsitinib + AZD7762 (first compound 0.03162 µM) came to 0.411; with Linsitinib + AZD7762 (first compound 0.1 µM) it was 0.485; with Linsitinib + AZD7762 (first compound 0.3162 µM), 0.49; with Linsitinib + AZD7762 (first compound 1 µM), 0.414; in the assay with Linsitinib + Vorinostat (first compound 0.01 µM) it was 0.912; with Linsitinib + Vorinostat (first compound 0.03162 µM), 0.927. For the same cell line, the relative viability with Linsitinib + Vorinostat (first compound 0.1 µM) is 0.953; in the assay with Linsitinib + Vorinostat (first compound 0.3162 µM), 1; with Linsitinib + Vorinostat (first compound 1 µM) it was 0.623; in the assay with Ispinesib + Tozasertib (first compound 0.001 µM), 0.531; with Ispinesib + Tozasertib (first compound 0.003162 µM) it was 0.275; with Ispinesib + Tozasertib (first compound 0.01 µM), 0.445. Moreover, the relative viability in the assay with Ispinesib + Tozasertib (first compound 0.03162 µM) worked out at 0.333; in the assay with Ispinesib + Tozasertib (first compound 0.1 µM), 0.396.
In the case of NCI-H358, the relative viability in the assay with Linsitinib + Trametinib (first compound 0.01 µM) was determined as 0.15; with Linsitinib + Trametinib (first compound 0.03162 µM), 0.148; with Linsitinib + Trametinib (first compound 0.1 µM) it was 0.13; with Linsitinib + Trametinib (first compound 0.3162 µM) it was 0.118; with Linsitinib + Trametinib (first compound 1 µM) it was 0.0976; with Linsitinib + AZD7762 (first compound 0.01 µM), 0.668. Moreover, the relative viability with Linsitinib + AZD7762 (first compound 0.03162 µM) was determined as 0.473; with Linsitinib + AZD7762 (first compound 0.1 µM), 0.563; in the assay with Linsitinib + AZD7762 (first compound 0.3162 µM) it was 0.366; in the assay with Linsitinib + AZD7762 (first compound 1 µM), 0.321; in the assay with Linsitinib + Vorinostat (first compound 0.01 µM), 0.74; with Linsitinib + Vorinostat (first compound 0.03162 µM), 0.564. The relative viability was determined as 0.812 with Linsitinib + Vorinostat (first compound 0.1 µM); 0.55 with Linsitinib + Vorinostat (first compound 0.3162 µM); 0.368 in the assay with Linsitinib + Vorinostat (first compound 1 µM); 0.1 with Ispinesib + Tozasertib (first compound 0.001 µM); 0.101 in the assay with Ispinesib + Tozasertib (first compound 0.003162 µM); 0.0892 with Ispinesib + Tozasertib (first compound 0.01 µM). Further, the relative viability with Ispinesib + Tozasertib (first compound 0.03162 µM) came out at 0.116; with Ispinesib + Tozasertib (first compound 0.1 µM), 0.0906.
Regarding NCI-H441, the relative viability came to 0.537 with Linsitinib + Trametinib (first compound 0.01 µM); 0.44 with Linsitinib + Trametinib (first compound 0.03162 µM); 0.339 with Linsitinib + Trametinib (first compound 0.1 µM); 0.215 in the assay with Linsitinib + Trametinib (first compound 0.3162 µM); 0.231 in the assay with Linsitinib + Trametinib (first compound 1 µM); 1.2 in the assay with Linsitinib + AZD7762 (first compound 0.01 µM). Also, the relative viability in the assay with Linsitinib + AZD7762 (first compound 0.03162 µM) stood at 1.07; in the assay with Linsitinib + AZD7762 (first compound 0.1 µM) it was 1.29; in the assay with Linsitinib + AZD7762 (first compound 0.3162 µM), 0.831; with Linsitinib + AZD7762 (first compound 1 µM) it was 0.898; in the assay with Linsitinib + Vorinostat (first compound 0.01 µM), 0.904; in the assay with Linsitinib + Vorinostat (first compound 0.03162 µM) it was 0.829. Also, the relative viability with Linsitinib + Vorinostat (first compound 0.1 µM) worked out at 0.84; with Linsitinib + Vorinostat (first compound 0.3162 µM), 0.556; with Linsitinib + Vorinostat (first compound 1 µM), 0.547; in the assay with Ispinesib + Tozasertib (first compound 0.001 µM), 0.681; with Ispinesib + Tozasertib (first compound 0.003162 µM), 0.603; with Ispinesib + Tozasertib (first compound 0.01 µM) it was 0.673. Also, the relative viability with Ispinesib + Tozasertib (first compound 0.03162 µM) turned out to be 0.258; with Ispinesib + Tozasertib (first compound 0.1 µM), 0.341.
